# What was measured:
# Format in all cases: functional
# [1] = test system: Streptococcus pyogenes; test: Antibacterial activity against efflux-resistant Streptococcus pyogenes B0545 by agar microdilution method
# [2] = test system: Streptococcus pyogenes; test: Antibacterial activity against constitutive macrolide-lincosamide-streptogramin B-resistant Streptococcus pyogenes B0544 by agar microdilution method
# [3] = test system: Staphylococcus aureus; test: Antibacterial activity against erythromycin A-susceptible Staphylococcus aureus B0329 by agar microdilution method
# [4] = test system: Streptococcus pyogenes; test: Antibacterial activity against inducible macrolide-lincosamide-streptogramin B-resistant Streptococcus pyogenes B0543 by agar microdilution method
# [5] = test system: Staphylococcus aureus; test: Antibacterial activity against inducible macrolide-lincosamide-streptogramin B-resistant Staphylococcus aureus B0538 by agar microdilution method
# [6] = test system: Staphylococcus aureus; test: Antibacterial activity against constitutive macrolide-lincosamide-streptogramin B-resistant Staphylococcus aureus B0330 by agar microdilution method
# [7] = test system: Streptococcus pneumoniae; test: Antibacterial activity against constitutive macrolide-lincosamide-streptogramin B-resistant Streptococcus pneumoniae B0627 by agar microdilution method
# [8] = test system: Streptococcus pneumoniae; test: Antibacterial activity against efflux-resistant Streptococcus pneumoniae B0326 by agar microdilution method
# [9] = test system: Streptococcus pyogenes; test: Antibacterial activity against erythromycin A-susceptible Streptococcus pyogenes B0542 by agar microdilution method
# [10] = test system: Streptococcus pneumoniae; test: Antibacterial activity against erythromycin A-susceptible Streptococcus pneumoniae B0541 by agar microdilution method
# [11] = test system: Moraxella catarrhalis; test: Antibacterial activity against Moraxella catarrhalis B0324 by agar microdilution method
# [12] = test system: Haemophilus influenzae; test: Antibacterial activity against Haemophilus influenzae B0529 by agar microdilution method
# [13] = test system: Staphylococcus aureus; test: Antibacterial activity against efflux-resistant Staphylococcus aureus B0331 by agar microdilution method
Compound,MIC [1],MIC [2],MIC [3],MIC [4],MIC [5],MIC [6],MIC [7],MIC [8],MIC [9],MIC [10],MIC [11],MIC [12],MIC [13]
CC[C@H]1OC(=O)[C@H](C)C(=O)[C@H](C)[C@@H](O[C@@H]2O[C@H](C)C[C@H](N(C)C)[C@H]2O)[C@](C)(OCC(O)CN[C@H](C)Cc2ccccc2)C[C@@H](C)NC(=O)[C@H](C)[C@H](O)[C@@]1(C)O (stereo not given in full),0.5 µg/mL,4 µg/mL,0.5 µg/mL,0.5 µg/mL,2 µg/mL,> 64 µg/mL,2 µg/mL,1 µg/mL,≤ 0.125 µg/mL,≤ 0.125 µg/mL,0.25 µg/mL,1 µg/mL,2 µg/mL
CC[C@H]1OC(=O)[C@H](C)C(=O)[C@H](C)[C@@H](O[C@@H]2O[C@H](C)C[C@H](N(C)C)[C@H]2O)[C@](C)(OCC(O)CNCCc2cccnc2)C[C@@H](C)NC(=O)[C@H](C)[C@H](O)[C@@]1(C)O (stereo not given in full),2 µg/mL,32 µg/mL,4 µg/mL,4 µg/mL,8 µg/mL,> 64 µg/mL,2 µg/mL,8 µg/mL,0.25 µg/mL,0.5 µg/mL,1 µg/mL,8 µg/mL,4 µg/mL
CC[C@H]1OC(=O)[C@H](C)C(=O)[C@H](C)[C@@H](O[C@@H]2O[C@H](C)C[C@H](N(C)C)[C@H]2O)[C@](C)(OCC(O)CNc2ccc3ncccc3c2)C[C@@H](C)NC(=O)[C@H](C)[C@H](O)[C@@]1(C)O (stereo not given in full),8 µg/mL,16 µg/mL,2 µg/mL,4 µg/mL,2 µg/mL,64 µg/mL,8 µg/mL,2 µg/mL,≤ 0.125 µg/mL,≤ 0.125 µg/mL,0.5 µg/mL,≤ 0.125 µg/mL,1 µg/mL
CC[C@H]1OC(=O)[C@H](C)C(=O)[C@H](C)[C@@H](O[C@@H]2O[C@H](C)C[C@H](N(C)C)[C@H]2O)[C@](C)(OCC(O)CNC2CN(S(=O)(=O)c3ccc4ccncc4c3)CCN2)C[C@@H](C)NC(=O)[C@H](C)[C@H](O)[C@@]1(C)O (stereo not given in full),16 µg/mL,> 64 µg/mL,8 µg/mL,16 µg/mL,16 µg/mL,> 64 µg/mL,32 µg/mL,64 µg/mL,≤ 0.125 µg/mL,≤ 0.125 µg/mL,8 µg/mL,> 64 µg/mL,16 µg/mL
CC[C@H]1OC(=O)[C@H](C)C(=O)[C@H](C)[C@@H](O[C@@H]2O[C@H](C)C[C@H](N(C)C)[C@H]2O)[C@](C)(OCC(O)CNCC(C)C)C[C@@H](C)NC(=O)[C@H](C)[C@H](O)[C@@]1(C)O (stereo not given in full),8 µg/mL,> 64 µg/mL,64 µg/mL,64 µg/mL,64 µg/mL,> 64 µg/mL,> 64 µg/mL,64 µg/mL,8 µg/mL,16 µg/mL,16 µg/mL,> 64 µg/mL,64 µg/mL
CC[C@H]1OC(=O)[C@H](C)C(=O)[C@H](C)[C@@H](O[C@H]2C[C@H](O)[C@@H](N(C)C)[C@@H](C)O2)[C@](C)(OC/C=C/c2cnc3ccccc3c2)C[C@@H](C)/C(=N\OC(C)=O)[C@H](C)[C@@H](O)[C@]1(C)O,0.5 µg/mL,32 µg/mL,0.25 µg/mL,≤ 0.125 µg/mL,0.5 µg/mL,64 µg/mL,8 µg/mL,≤ 0.125 µg/mL,0.125 µg/mL,≤ 0.125 µg/mL,8 µg/mL,32 µg/mL,1 µg/mL
CC[C@H]1OC(=O)[C@H](C)C(=O)[C@H](C)[C@@H](O[C@H]2C[C@H](O)[C@@H](N(C)C)[C@@H](C)O2)[C@](C)(OC/C=C/c2cnc3ccccc3c2)C[C@@H](C)/C(=N\O)[C@H](C)[C@@H](O)[C@]1(C)O,≤ 0.125 µg/mL,32 µg/mL,≤ 0.125 µg/mL,≤ 0.125 µg/mL,≤ 0.125 µg/mL,> 64 µg/mL,4 µg/mL,≤ 0.125 µg/mL,≤ 0.125 µg/mL,≤ 0.125 µg/mL,4 µg/mL,8 µg/mL,0.5 µg/mL
CC[C@H]1OC(=O)[C@H](C)C(=O)[C@H](C)[C@@H](O[C@@H]2O[C@H](C)C[C@H](N(C)C)[C@H]2O)[C@](C)(OC/C=C/c2cnc3ccccc3c2)C[C@@H](C)NC(=O)[C@H](C)[C@@H]2OC(=O)O[C@]12C,0.5 µg/mL,8 µg/mL,≤ 0.125 µg/mL,≤ 0.125 µg/mL,0.25 µg/mL,64 µg/mL,4 µg/mL,≤ 0.125 µg/mL,≤ 0.125 µg/mL,0.06 µg/mL,0.25 µg/mL,1 µg/mL,0.25 µg/mL
O=C(O)c1cn(C2CC2)c2cc(N3CCNCC3)c(F)cc2c1=O [CIPROFLOXACIN],≤ 0.125 µg/mL,0.5 µg/mL,–,0.25 µg/mL,–,≤ 0.125 µg/mL,0.25 µg/mL,0.25 µg/mL,2 µg/mL,≤ 0.125 µg/mL,0.125 µg/mL,≤ 0.125 µg/mL,≤ 0.125 µg/mL

# From ChEMBL document CHEMBL1287771, “Novel hybrids of 15-membered 8a- and 9a-azahomoerythromycin A ketolides and quinolones as potent antibacterials” (2010)
